One experiment relates to AcypiAKHR. Put plainly: Aequorin-based bioluminescent calcium assay in CHO-WTA11 cells. It is filed as cell-based, Acyrthosiphon pisum. Conditions: peptide at micromolar concentrations; relative to cognate AKH. An excerpt: (§1) We expressed the different insect AKH receptors in Chinese hamster ovary (CHO) WTA11 cells, stably expressing apo-aequorin, a zeocin resistance gene and the promiscuous Gα16 subunit coupling to the phospholipase C and Ca^2+ signaling cascade (Euroscreen, Brussels, Belgium). The AKH from each species elicited a clear dose-dependent response in the bioluminescent calcium assay of its conspecific receptor, with an EC50 value in the low nanomolar range (Figure 3).
(§2) We analyzed the activity of the different AKH receptors using CHO-WTA11 cells, which contain a promiscuous Gα16 subunit that will induce an intracellular Ca^2+-increase upon receptor binding independent of the receptors’ natural signaling cascade (see also [48]). […]
(§3) For transfection of the cells (T75 flasks at 60–80% confluency), we dissolved 5 µg pcDNA3.1-receptor or empty pcDNA3.1 vector in 2.5 mL Opti-MEM® (Gibco) supplemented with 12.5 µL Plus™ Reagent of the Lipofectamine LTX Kit (Invitrogen) in 5 mL polystyrene round-bottom tubes. […] We monitored ligand-induced changes in intracellular Ca^2+ in the cells as described below. […]

A further experiment has as its system TricaAKHR. The description is as above. The format is cell-based, Tribolium castaneum. Conditions: peptide at micromolar concentrations; relative to cognate AKH.
From the text: as §1, §2, §3

Experiment [1] relates to seven different insect AKH receptors. Put plainly: Aequorin-based bioluminescent calcium assay in CHO-WTA11 cells, statements for all seven receptors together. It is filed as cell-based. Conditions: peptide at micromolar concentrations; all analysed AKHRs.
From the text: as §1, §2, §3

For the next experiment, the system named is HylabAKHR. The experiment can be described thus: Aequorin-based bioluminescent calcium assay in CHO-WTA11 cells. It is filed as cell-based, Hylobius abietis. Conditions: peptide at micromolar concentrations; relative to cognate AKH.
From the text: as §1, §2, §3

For the substance pQ-TFQYSHGWTNamide [Crz, corazonin], the receptor activation entry with AcypiAKHR, in the experiment on TricaAKHR and with HylabAKHR was “very limited activation” in each case. Further, in experiment [1], the AKHR activation entry was “not able to activate any of the AKHRs that were analyzed to same extent as the endogenous AKHs”.

For pQVTF--SRDWNAamide [ACP], in experiment [1], the AKHR activation result was “only very low levels of AKHR activation”.

The values above are taken from article PMC5855764, “Analysis of Peptide Ligand Specificity of Different Insect Adipokinetic Hormone Receptors” (International Journal of Molecular Sciences, 2018).
